In one assay the target is T1, PI3K alpha (Homo sapiens, UniProt P42336).
T1 construct: p85(iSH2) fusion partner (see partner chain) (N); His tag (C); made in house; host or cells: baculovirus; Tn5 (Trichoplusia ni) or TiniPro insect cells
Description: PI3K alpha kinase assay (Kinase-Glo luminescence). Format: biochemical. The gist of the method: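 Read-out: Kinase-Glo luminescence of ATP left after 60 min at room temperature. Conditions: 10 nM PI3Kα (EMV B1075), 1 μM ATP, 10 μg/mL PI substrate, Tris pH 7.5 buffer with MgCl2, NaCl, CHAPS and DTT. IC50s fitted with a four-parameter logistic model.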
(Kinase-Glo measures the ATP left after a reaction by luminescence.)

Assay [1] concerns PKB Ser473 phosphorylation in Rat1-myr-HA-p110 delta cells. Description: Reverse protein array assay, PKB Ser473 phosphorylation in Rat1-myr-p110 delta cells. Format: cell-based. As to conditions: read-out: p-PKB IC50. The gist of the method: (§1)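 Lysates were arrayed at four dilutions, and phospho-PKB Ser473 was quantified by relative fluorescence signal. They came from Rat1-myr-HA-p110 alpha, beta or delta cells exposed for 30 min at 37 °C to an 8-point compound series with 0.2% DMSO constant.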

The next assay deals with T2, PI3K beta (Homo sapiens, UniProt P42338).
T2 construct: for the full-length p110-b subunit are generated and fused by overlapping PCR; p85(iSH2) fusion partner (see partner chain) (N); His tag (C); made in house; host or cells: baculovirus; Tn5 (Trichoplusia ni) or TiniPro insect cells
T2 sequence (P42338 with tags, fused parts or gaps limits assumed): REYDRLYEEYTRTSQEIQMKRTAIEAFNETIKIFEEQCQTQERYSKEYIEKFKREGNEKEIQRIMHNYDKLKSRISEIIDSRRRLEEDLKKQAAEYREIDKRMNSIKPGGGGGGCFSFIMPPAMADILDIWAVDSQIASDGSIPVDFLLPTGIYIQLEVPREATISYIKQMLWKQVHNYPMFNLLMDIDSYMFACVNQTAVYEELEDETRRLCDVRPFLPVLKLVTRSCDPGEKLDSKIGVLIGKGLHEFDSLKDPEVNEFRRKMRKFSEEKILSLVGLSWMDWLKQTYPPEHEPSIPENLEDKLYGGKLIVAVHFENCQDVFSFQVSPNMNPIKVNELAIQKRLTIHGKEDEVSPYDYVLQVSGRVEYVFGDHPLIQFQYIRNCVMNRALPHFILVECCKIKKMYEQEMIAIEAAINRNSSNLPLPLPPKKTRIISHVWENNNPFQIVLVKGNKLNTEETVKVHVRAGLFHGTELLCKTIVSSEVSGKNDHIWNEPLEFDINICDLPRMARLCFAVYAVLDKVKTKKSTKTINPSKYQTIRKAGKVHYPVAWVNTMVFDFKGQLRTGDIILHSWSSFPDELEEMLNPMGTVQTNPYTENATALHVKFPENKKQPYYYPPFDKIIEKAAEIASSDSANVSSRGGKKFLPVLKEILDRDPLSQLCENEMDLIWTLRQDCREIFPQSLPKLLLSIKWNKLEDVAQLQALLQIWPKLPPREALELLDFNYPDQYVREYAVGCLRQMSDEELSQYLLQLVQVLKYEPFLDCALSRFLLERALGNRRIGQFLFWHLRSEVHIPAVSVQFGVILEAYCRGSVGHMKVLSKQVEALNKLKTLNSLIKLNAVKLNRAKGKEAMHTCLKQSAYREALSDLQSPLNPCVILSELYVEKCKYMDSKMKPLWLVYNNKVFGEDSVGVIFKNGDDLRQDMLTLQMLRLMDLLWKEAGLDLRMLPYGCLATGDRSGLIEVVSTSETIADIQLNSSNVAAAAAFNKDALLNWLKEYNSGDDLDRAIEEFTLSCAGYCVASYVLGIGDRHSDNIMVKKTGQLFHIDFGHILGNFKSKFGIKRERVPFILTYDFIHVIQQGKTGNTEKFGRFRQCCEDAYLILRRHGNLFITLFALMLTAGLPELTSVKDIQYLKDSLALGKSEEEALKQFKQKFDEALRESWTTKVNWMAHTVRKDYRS
Description: PI3K beta kinase assay (Kinase-Glo luminescence). Format: biochemical. The gist of the method: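 p110β full-length/p85 iSH2 construct (BV-949), 25 nM, with 1 μM ATP and 10 μg/mL phosphatidylinositol in 10 mM Tris pH 7.5, 3 mM MgCl2, 50 mM NaCl, 0.05% CHAPS, 1 mM DTT. 60 min at room temperature; ATP remaining read by Kinase-Glo luminescence. IC50 from 8-point four-parameter logistic fit.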

Another assay addresses T3, PI3K delta (Homo sapiens, UniProt O00329).
T3 construct: for the full-length p110-d subunit are generated and fused by overlapping PCR; p85(iSH2) fusion partner (see partner chain) (N); His tag (C); made in house; host or cells: baculovirus; Tn5 (Trichoplusia ni) or TiniPro insect cells
Description: PI3K delta kinase assay (Kinase-Glo luminescence). In kind it is biochemical. The gist of the method: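 Kinase-Glo luminescence read-out of ATP remaining after 60 min at RT. Enzyme: 10 nM BV1060 (p85 iSH2–p110δ fusion, His-tagged); substrate 10 μg/mL PI, ATP 1 μM final; Tris pH 7.5 buffer with MgCl2, NaCl, CHAPS, DTT. IC50 from 4-parameter logistic fit over 8 concentrations.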

Assay [2] concerns PKB Ser473 phosphorylation in Rat1-myr-HA-p110 beta cells. Description: Reverse protein array assay, PKB Ser473 phosphorylation in Rat1-myr-p110 beta cells. In kind it is cell-based. The settings on record: 0.5 h, pAkt Ser473, 30 minutes incubation, read-out: p-PKB IC50. The essentials: as §1

T3 sequence (O00329 with tags, fused parts or gaps limits assumed): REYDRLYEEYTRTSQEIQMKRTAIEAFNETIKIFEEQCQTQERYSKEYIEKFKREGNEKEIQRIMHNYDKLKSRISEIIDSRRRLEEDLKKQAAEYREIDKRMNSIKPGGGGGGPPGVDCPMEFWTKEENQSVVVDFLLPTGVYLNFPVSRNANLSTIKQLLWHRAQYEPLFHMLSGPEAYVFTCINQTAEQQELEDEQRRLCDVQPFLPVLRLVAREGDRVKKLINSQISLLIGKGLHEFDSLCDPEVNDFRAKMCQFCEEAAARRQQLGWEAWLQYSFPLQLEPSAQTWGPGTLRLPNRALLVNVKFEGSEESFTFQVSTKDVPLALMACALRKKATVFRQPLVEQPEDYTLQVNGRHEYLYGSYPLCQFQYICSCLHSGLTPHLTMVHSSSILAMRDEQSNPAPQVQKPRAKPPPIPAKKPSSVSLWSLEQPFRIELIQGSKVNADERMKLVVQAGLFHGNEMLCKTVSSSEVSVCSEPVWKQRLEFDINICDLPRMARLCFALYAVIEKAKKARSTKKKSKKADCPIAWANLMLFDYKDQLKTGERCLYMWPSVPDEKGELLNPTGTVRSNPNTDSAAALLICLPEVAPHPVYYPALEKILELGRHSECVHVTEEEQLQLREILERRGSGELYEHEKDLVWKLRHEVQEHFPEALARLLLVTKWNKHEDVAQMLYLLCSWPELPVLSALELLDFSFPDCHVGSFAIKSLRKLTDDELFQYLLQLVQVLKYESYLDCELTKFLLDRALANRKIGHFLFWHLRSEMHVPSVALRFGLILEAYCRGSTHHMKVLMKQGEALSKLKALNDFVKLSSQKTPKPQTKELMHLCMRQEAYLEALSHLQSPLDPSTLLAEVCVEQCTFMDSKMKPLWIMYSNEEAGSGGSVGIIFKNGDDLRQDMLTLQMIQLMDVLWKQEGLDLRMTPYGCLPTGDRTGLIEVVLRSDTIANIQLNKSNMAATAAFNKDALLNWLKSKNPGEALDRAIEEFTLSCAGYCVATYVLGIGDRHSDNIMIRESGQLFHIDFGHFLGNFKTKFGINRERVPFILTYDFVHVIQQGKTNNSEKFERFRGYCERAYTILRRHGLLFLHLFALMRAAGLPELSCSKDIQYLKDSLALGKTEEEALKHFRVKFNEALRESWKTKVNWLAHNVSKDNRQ
T1 sequence (P42336 with tags, fused parts or gaps limits assumed): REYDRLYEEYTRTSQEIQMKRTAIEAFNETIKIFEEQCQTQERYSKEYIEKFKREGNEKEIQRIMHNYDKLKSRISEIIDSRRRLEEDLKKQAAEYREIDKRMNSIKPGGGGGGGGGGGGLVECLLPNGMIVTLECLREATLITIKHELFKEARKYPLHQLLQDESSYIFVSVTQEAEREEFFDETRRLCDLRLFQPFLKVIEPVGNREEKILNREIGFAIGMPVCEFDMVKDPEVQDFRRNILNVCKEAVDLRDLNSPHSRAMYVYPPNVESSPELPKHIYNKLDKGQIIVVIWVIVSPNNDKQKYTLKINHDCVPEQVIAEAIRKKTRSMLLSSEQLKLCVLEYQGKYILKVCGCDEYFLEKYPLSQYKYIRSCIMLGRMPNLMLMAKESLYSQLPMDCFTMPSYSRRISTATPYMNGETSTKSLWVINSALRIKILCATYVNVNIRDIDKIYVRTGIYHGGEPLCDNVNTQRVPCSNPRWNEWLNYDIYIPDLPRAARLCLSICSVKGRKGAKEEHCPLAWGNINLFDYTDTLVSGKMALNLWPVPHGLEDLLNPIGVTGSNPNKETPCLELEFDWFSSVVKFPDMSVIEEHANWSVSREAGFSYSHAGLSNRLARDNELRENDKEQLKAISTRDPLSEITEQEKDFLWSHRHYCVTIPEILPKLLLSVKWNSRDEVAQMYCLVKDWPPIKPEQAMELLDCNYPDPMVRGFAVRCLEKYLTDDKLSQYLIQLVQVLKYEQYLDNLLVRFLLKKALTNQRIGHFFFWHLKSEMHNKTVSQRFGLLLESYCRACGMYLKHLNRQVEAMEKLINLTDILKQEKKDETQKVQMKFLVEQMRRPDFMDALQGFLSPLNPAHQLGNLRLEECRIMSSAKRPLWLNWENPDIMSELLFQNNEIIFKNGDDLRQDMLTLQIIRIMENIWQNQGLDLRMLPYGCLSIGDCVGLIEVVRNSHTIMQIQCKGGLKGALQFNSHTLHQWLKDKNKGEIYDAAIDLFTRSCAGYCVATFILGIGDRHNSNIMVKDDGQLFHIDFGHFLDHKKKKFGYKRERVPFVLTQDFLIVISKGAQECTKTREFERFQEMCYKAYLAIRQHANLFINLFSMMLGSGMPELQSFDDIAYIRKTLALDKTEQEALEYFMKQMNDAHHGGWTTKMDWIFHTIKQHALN

`COCc1ncc(-c2ccc3ncc4c(c3c2)n(-c2cn(C)nc2C)c(=O)n4C)cc1OC(C)C` [Example 191.1, 1-(1,3-Dimethyl-1H-pyrazol-4-yl)-8-(5-isopropoxy-6-methoxymethyl-pyridin-3-yl)-3-methyl-1,3-dihydro-imidazo[4,5-c]quinolin-2-one]: the half-maximal inhibitory concentration (IC50) (usually the concentration that gives 50% inhibition) came out at 14 nM at PI3K alpha; 56 nM in assay [1]; 24 nM on PI3K beta; 6 nM at PI3K delta; 54 nM in assay [2].

Turning to `CCNc1ncc(-c2ccc3ncc4c(c3c2)n(-c2cn(C)nc2C)c(=O)n4C)cc1COCC` [Example 167, 1-(1,3-Dimethyl-1H-pyrazol-4-yl)-8-(5-ethoxymethyl-6-ethylamino-pyridin-3-yl)-3-methyl-1,3-dihydro-imidazo[4,5-c]quinolin-2-one], the concentration for half-maximal inhibition (IC50) at PI3K alpha was determined as 33 nM; in assay [1], 91 nM; on PI3K beta, 84 nM; at PI3K delta it was 25 nM; in assay [2], 72 nM.

As to `COCc1ncc(-c2ccc3ncc4c(c3c2)n(-c2cn(C)nc2C)c(=O)n4C)cc1OC` [Example 195.1, 1-(1,3-Dimethyl-1H-pyrazol-4-yl)-8-(5-methoxy-6-methoxymethyl-pyridin-3-yl)-3-methyl-1,3-dihydro-imidazo[4,5-c]quinolin-2-one], the concentration for half-maximal inhibition (IC50) was 18 nM at PI3K alpha; 154 nM in assay [1]; 72 nM at PI3K beta; 14 nM on PI3K delta; 114 nM in assay [2].

On to `COc1ncc(-c2ccc3ncc4c(c3c2)n(-c2cn(C)nc2C)c(=O)n4C)cc1NC(C)=O` [Example 64, N-{5-[1-(1,3-Dimethyl-1H-pyrazol-4-yl)-3-methyl-2-oxo-2,3-dihydro-1H-imidazo[4,5-c]quinolin-8-yl]-2-methoxy-pyridin-3-yl}-acetamide], for which the IC50 on PI3K alpha came to 87 nM; in assay [1], 157 nM; at PI3K beta it was 322 nM; on PI3K delta, 51 nM; in assay [2] it was 24 nM.

With `Cc1nn(C)c(C)c1-n1c(=O)n(C)c2cnc3ccc(-c4cnc(N)c(F)c4)cc3c21` [Example 142.1, 8-(6-Amino-5-fluoro-pyridin-3-yl)-3-methyl-1-(1,3,5-trimethyl-1H-pyrazol-4-yl)-1,3-dihydro-imidazo[4,5-c]quinolin-2-one], the IC50 on PI3K alpha stood at 28 nM; in assay [1] it was 306 nM; at PI3K beta, 201 nM; on PI3K delta it was 4 nM; in assay [2] it was 300 nM.

With `COc1ccc(-c2ccc3ncc4c(c3c2)n(-c2cc(C)nn2C)c(=O)n4C)cn1` [Example 2.3, 1-(2,5-Dimethyl-2H-pyrazol-3-yl)-8-(6-methoxy-pyridin-3-yl)-3-methyl-1,3-dihydro-imidazo[4,5-c]quinolin-2-one], the half-maximal inhibitory concentration (IC50) on PI3K alpha came out at 30 nM; in assay [1], 240 nM; at PI3K beta, 180 nM; at PI3K delta it was 30 nM; in assay [2], 116 nM.

For `CCN(C)C(=O)Cn1cc(-n2c(=O)n(C)c3cnc4ccc(-c5ccccc5)cc4c32)c(C)n1` [Example 135, N-Ethyl-N-methyl-2-[3-methyl-4-(3-methyl-2-oxo-8-phenyl-2,3-dihydro-imidazo[4,5-c]quinolin-1-yl)-pyrazol-1-yl]-acetamide], the IC50 amounted to 76 nM on PI3K alpha, 363 nM in assay [1] and 118 nM in assay [2].

Take `Cc1nn(C)cc1-n1c(=O)n(C)c2cnc3ccc(-c4cnc5c(c4)OCCN5C)cc3c21` [Example 209, 1-(1,3-Dimethyl-1H-pyrazol-4-yl)-3-methyl-8-(4-methyl-3,4-dihydro-2H-pyrido[3,2-b][1,4]oxazin-7-yl)-1,3-dihydro-imidazo[4,5-c]quinolin-2-one]: the IC50 at PI3K alpha stood at 6 nM; in assay [1] it was 66 nM; at PI3K beta, 273 nM; at PI3K delta it was 9 nM; in assay [2], 22 nM.

Consider `CNc1cc(-c2ccc3ncc4c(c3c2)n(-c2cn(C)nc2C)c(=O)n4C)cnc1F` [Example 150.2, 1-(1,3-Dimethyl-1H-pyrazol-4-yl)-8-(6-fluoro-5-methylamino-pyridin-3-yl)-3-methyl-1,3-dihydro-imidazo[4,5-c]quinolin-2-one], for which the IC50 is 9 nM on PI3K alpha; 15 nM in assay [1]; 12 nM on PI3K beta; 7 nM at PI3K delta; 10 nM in assay [2].

As for `COc1ncc(-c2ccc3ncc4c(c3c2)n(-c2cn(C)nc2C)c(=O)n4C)c(OC)n1` [Example 234.2, 8-(2,4-Dimethoxy-pyrimidin-5-yl)-1-(1,3-dimethyl-1H-pyrazol-4-yl)-3-methyl-1,3-dihydro-imidazo[4,5-c]quinolin-2-one], the half-inhibitory concentration (IC50) at PI3K alpha is less than 3 nM; in assay [1], 23 nM; on PI3K beta, 25 nM; at PI3K delta it was less than 3 nM; in assay [2], 26 nM.

As for `CNc1ncc(-c2ccc3ncc4c(c3c2)n(-c2cn(C)nc2C)c(=O)n4C)cc1F` [Example 141.2, 1-(1,3-Dimethyl-1H-pyrazol-4-yl)-8-(5-fluoro-6-methylamino-pyridin-3-yl)-3-methyl-1,3-dihydro-imidazo[4,5-c]quinolin-2-one], the IC50 on PI3K alpha was 14 nM; in assay [1] it was 21 nM; at PI3K beta it was 142 nM; on PI3K delta, 98 nM; in assay [2] it was less than 5 nM.

On to `CNC(=O)c1cc(-c2ccc3ncc4c(c3c2)n(-c2cn(C(C)C)nc2C)c(=O)n4C)cnc1N` [Example 224.2, 2-Amino-5-[1-(1-isopropyl-3-methyl-1H-pyrazol-4-yl)-3-methyl-2-oxo-2,3-dihydro-1H-imidazo[4,5-c]quinolin-8-yl]-N-methyl-nicotinamide], for which the IC50 at PI3K alpha amounted to 93 nM; in assay [1] it was 132 nM; on PI3K beta, 280 nM; on PI3K delta, 41 nM; in assay [2], 130 nM.

Regarding `CCOc1ccc(-c2ccc3ncc4c(c3c2)n(-c2ccnn2CC)c(=O)n4C)cn1` [Example 3.4, 8-(6-Ethoxy-pyridin-3-yl)-1-(2-ethyl-2H-pyrazol-3-yl)-3-methyl-1,3-dihydro-imidazo[4,5-c]quinolin-2-one], the IC50 on PI3K alpha came out at 217 nM; in assay [1], 418 nM; on PI3K delta, 283 nM; in assay [2], 248 nM.

For the compound `CCN(C)C(=O)Cn1cc(-n2c(=O)n(C)c3cnc4ccc(-c5cnc(N6CCCC6)nc5)cc4c32)c(C)n1` [Example 140.1, N-Ethyl-N-methyl-2-{3-methyl-4-[3-methyl-2-oxo-8-(2-pyrrolidin-1-yl-pyrimidin-5-yl)-2,3-dihydro-imidazo[4,5-c]quinolin-1-yl]-pyrazol-1-yl}-acetamide], the half-inhibitory concentration (IC50) at PI3K alpha stood at 168 nM; in assay [1], 307 nM; in assay [2], 100 nM.

As to `Cc1nn(CC(=O)N(C)C)cc1-n1c(=O)n(C)c2cnc3ccc(-c4ccccc4)cc3c21` [Example 37.3, N,N-Dimethyl-2-[3-methyl-4-(3-methyl-2-oxo-8-phenyl-2,3-dihydro-imidazo[4,5-c]quinolin-1-yl)-pyrazol-1-yl]-acetamide], the 50% inhibitory concentration (IC50) came out at 71 nM on PI3K alpha, 362 nM in assay [1] and 235 nM in assay [2].

As to `Cc1nn(CC(=O)N(C)C)c(C)c1-n1c(=O)n(C)c2cnc3ccc(-c4cncc(OC5CCC5)c4)cc3c21` [Example 60.2, 2-{4-[8-(5-Cyclobutoxy-pyridin-3-yl)-3-methyl-2-oxo-2,3-dihydro-imidazo[4,5-c]quinolin-1-yl]-3,5-dimethyl-pyrazol-1-yl}-N,N-dimethyl-acetamide], the IC50 came to 315 nM at PI3K alpha and 694 nM on PI3K delta.

On to `Cc1nn(C)cc1-n1c(=O)n(C)c2cnc3ccc(-c4ccc(-n5cccn5)nc4)cc3c21` [Example 79, 1-(1,3-Dimethyl-1H-pyrazol-4-yl)-3-methyl-8-(6-pyrazol-1-yl-pyridin-3-yl)-1,3-dihydro-imidazo[4,5-c]quinolin-2-one], for which the half-maximal inhibitory concentration (IC50) on PI3K alpha worked out at 48 nM; in assay [1] it was 16 nM; at PI3K delta, 318 nM; in assay [2], 7 nM.

For the origin of these results see US20140005163A1 (NOVARTIS AG, priority 2010, published 2014).
